Data on 14 molecules can be found in paper PMC5940854, “Nitrothiophene carboxamides, a novel narrow spectrum antibacterial series: Mechanism of action and Efficacy” (Scientific Reports, 2018).

One assay has as its system E. coli ∆tolC JW5503-1. Kind of assay: MIC, E. coli ∆tolC. Format: cell-based. To be noted: for MIC tolC: E. coli ∆tolC; for MIC: Escherichia coli, read-out: MIC tolC. As to the method: (§1) The inoculum used for all the experiments is derived from a single seed lot that is maintained as glycerol stocks at −80 °C and are sub cultured on LB plate for isolated colonies. Single colony of each strain is grown in M9 medium. All test compound stocks and dilutions are prepared in DMSO. Serial two-fold dilutions of compounds are prepared separately, with the concentrations ranging from 2 mg/mL to 0.015 mg/mL. To 150 µl (3–7 × 10^5 CFU/ml) of bacterial culture in 96 well microtitre plates, 3 μL compound from each of the dilutions is added to respective wells to obtain final concentrations ranging from 40 µg/mL to 0.3 µg/mL of the test compounds. Media control, culture control and appropriate reference drug controls are included. […] Growth is monitored by checking absorbance at 600 nm (A600). […] The samples from MIC and above concentrations are plated for MBC (Minimum Bactericidal Concentration). The samples are diluted 1:10 and plated on LB agar plates. […] The killing kinetics is determined by enumerating survivors at various time points following compound exposure. E. coli cells (~10^7 CFU/ml; A600 of 0.1) are treated with various concentrations (40 µg/mL to 0.3 µg/mL) of compounds in a 96-well microtitre plate. At various time intervals (0 to 8 h), 30 μl volumes of treated cultures are serially diluted and plated on LB agar plates. […] Data is expressed as the log10 CFU for each drug treatment.

The subject of assay [1] is wild-type E. coli CGSC#7636 (BW25113). The assay can be described thus: MIC, wild-type E. coli. The format is cell-based. To be noted: for MIC WT: E. coli WT BW25113; for MIC: Escherichia coli. As to the method:
as §1

Another assay relates to E. coli ∆acrB JW0451-2. Kind of assay: MIC, E. coli ∆acrB. Format: cell-based. To be noted: for MIC acrB: E. coli ∆acrB; for MIC: Escherichia coli, read-out: MIC acrB. How it is done:
as §1

A further assay addresses T1, NfsB (Escherichia coli, UniProt P38489).
T1 construct: His-tag; made in house; host or cells: E. coli BL21(DE3), pET28a (pET-nfsB)
Kind of assay: Nitroreductase activity assay, NfsB. Format: biochemical, E. coli. How it is done:
(§2) Enzyme reducing each of the substrates are measured by monitoring the concomitant oxidation of NADPH by NfsA and NADH by NfsB in a fluorescence based assay. The reduction in fluorescence due to the NADH oxidation (excitation 350 nm, emission 460 nm) and NADPH oxidation (excitation 340 nm, emission 485 nm) is recorded using a TECAN Infinite M200Pro spectrophotometer, in half area solid black microtiter plates. This change in fluorescence directly corelates to the reduction of the nitro-compounds in the reaction. The NfsA assays is performed by initiating the reactions with 40 μM NADPH and 10 nM NfsA in 50 mM Tris-HCl (pH 7.4), 5 mM EDTA against 20 μM substrate (5 μl of compounds/substrate dissolved in 100% DMSO) in a total reaction volume of 100 μl at 25 °C. Similarly, the NfsB assay is also performed by initiating the reactions with 40 μM NADH and 70 nM NfsB in 50 mM Tris-HCl (pH 7.4), 5 mM EDTA against 20 μM substrate in a total reaction volume of 100 μl. […] All reactions are performed in replicates of two or more and the fluorescence measurements are made at 10 second intervals for 5–10 minutes.
(§3) Low solubility of the compounds/substrates under the NfsA and NfsB assay conditions precluded determination of their Km. […] The relative fluorescence units (RFU) obtained due to NADPH (excitation 340 nm, emission 485 nm) or NADH (excitation 350 nm, emission 460 nm) oxidation of the first 90 sec reaction is used to compute the slopes using linear regression analysis on GraphPad Prism. Appropriate blank reactions are included to account for background fluorescence/quenching from each of the components such as DMSO, the compound itself and auto-oxidation of NADPH or NADH. Activity of NfsB with a known substrate such as nitrofurantoin is used as a benchmark to plot the relative activities with all the test compounds.

For another assay, the system named is E. coli ∆nfsA. The assay can be described thus: microbe, parasite or virus in culture. Format: cell-based. To be noted: Escherichia coli, read-out: MIC ∆nfsA. How it is done: (§4) To assess the biological relevance of the interacting protein and establish the link between nitroreductases to the antibacterial activity of NTC compounds, single (ΔnfsA or ΔnfsB) and double knockouts (ΔnfsA & ΔnfsB) of nitroreductases were generated by phage transduction using strains from the Keio collection.
as §1

For another assay, the system named is E. coli ∆nfsA + ∆nfsB. Kind of assay: microbe, parasite or virus in culture. The format is cell-based. As to the method: as §4, §1
The target of the next assay is T2, NfsA (Escherichia coli, UniProt P17117).
T2 construct: His-tag; made in house; host or cells: E. coli BL21(DE3), pET28a (pET-nfsA)
The assay can be described thus: Nitroreductase activity assay, NfsA. Format: biochemical, E. coli. As to the method:
as §2, §3

The next assay concerns E. coli ∆nfsB. Kind of assay: microbe, parasite or virus in culture. The format is cell-based. As to conditions: Escherichia coli, read-out: MIC ∆nfsB. How it is done:
as §4, §1
The wild-type E. coli strain BW25113 and the entire Keio collection of knockouts[22] is maintained as glycerol stocks at −80 °C in 96-well deep well blocks. […] These are sub cultured in 150 µl of LB broth (Kanamycin 50 ug/ml, except for the wild-type strain) in 96 well microtiter plates and then adapted into M9 medium with 0.4% glucose. […] Cultures of single gene knockouts that show an altered MIC as compared to that of the wild type are scored as ‘Hits’.

Where [2] appears, read: BW25113, E. coli WT BW25113, read-out: MIC WT.

Values after ≈ are worked out from the molar mass of the structure shown. Where two headings read alike, the source gives them in different places. A value given as a limit tells only on which side of the number the result lay.

T1 sequence (P38489 whole entry): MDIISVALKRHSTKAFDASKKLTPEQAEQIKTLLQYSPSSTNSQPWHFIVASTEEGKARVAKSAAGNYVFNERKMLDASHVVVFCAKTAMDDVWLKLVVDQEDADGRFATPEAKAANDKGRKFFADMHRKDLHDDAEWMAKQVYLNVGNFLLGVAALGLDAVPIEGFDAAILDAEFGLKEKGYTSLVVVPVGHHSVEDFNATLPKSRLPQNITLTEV
T2 sequence (P17117 whole entry): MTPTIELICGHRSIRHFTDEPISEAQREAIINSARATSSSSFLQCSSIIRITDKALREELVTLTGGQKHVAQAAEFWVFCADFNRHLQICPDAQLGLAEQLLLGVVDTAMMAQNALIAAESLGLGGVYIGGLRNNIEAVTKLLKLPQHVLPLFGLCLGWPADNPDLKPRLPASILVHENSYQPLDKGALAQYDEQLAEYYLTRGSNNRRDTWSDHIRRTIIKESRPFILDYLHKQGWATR

Consider “5-Nitro-N-(4-(6-(trifluoromethyl)pyridin-3-yl)thiazol-2-yl)thiophene-2-carboxamide [compound 17]”, for which the “MIC tolC” value against E. coli ∆tolC JW5503-1 came to 10 µg/mL. Further, in assay [1], the “MIC WT” value is over 40 µg/mL. In addition, the “MIC acrB” value against E. coli ∆acrB JW0451-2 was found to be 10 µg/mL.

Consider `Cc1sc(NC(=O)c2ccc(C(F)(F)F)s2)nc1-c1ccccc1` [compound 8, N-(5-Methyl-4-phenylthiazol-2-yl)-5-(trifluoromethyl) thiophene-2-carboxamide], for which the MIC (with E. coli ∆tolC JW5503-1; in assay [1] (setting [2]); in the assay with E. coli ∆acrB JW0451-2) was over 40 µg/mL in each case.

For `Cc1sc(NC(=O)c2ccc([N+](=O)[O-])s2)nc1-c1ccc(F)cc1` [compound 9, N-(4-(4-Fluorophenyl)-5-methylthiazol-2-yl)-5-nitrothiophene-2-carboxamide], the MIC in the assay with E. coli ∆tolC JW5503-1 is 0.6 µg/mL (≈ 1.65 µM); in assay [1] (setting [2]), over 40 µg/mL; in the assay with E. coli ∆acrB JW0451-2 it was 0.6 µg/mL (≈ 1.65 µM).

With `CN(C)Cc1sc(NC(=O)c2ccc([N+](=O)[O-])s2)nc1-c1ccc(F)cc1` [compound 10, N-(5-((dimethylamino)methyl)-4-(4-fluorophenyl)thiazol-2-yl)-5-nitro thiophene-2-carboxamide], the MIC in the assay with E. coli ∆tolC JW5503-1 was 2.5 µg/mL (≈ 6.15 µM); in assay [1] (setting [2]), over 40 µg/mL; in the assay with E. coli ∆acrB JW0451-2, 2.5 µg/mL (≈ 6.15 µM). The “fold change of MIC in ∆tolC” value in the assay on E. coli ∆tolC JW5503-1 (compared to 9) is recorded as “four fold”.

For the molecule `O=C(Nc1nc(-c2ccc(F)c(F)c2)cs1)c1ccc([N+](=O)[O-])s1` [compound 11, N-(4-(3,4-Difluorophenyl)thiazol-2-yl)-5-nitrothiophene-2-carboxamide], the MIC in the assay on E. coli ∆tolC JW5503-1 worked out at 0.15 µg/mL (≈ 0.408 µM); in assay [1] (setting [2]) it was 0.6 µg/mL (≈ 1.63 µM); in the assay with E. coli ∆acrB JW0451-2 it was 0.3 µg/mL (≈ 0.817 µM).

As to `N#Cc1ccc(-c2csc(NC(=O)c3ccc([N+](=O)[O-])s3)n2)cc1` [compound 14, N-(4-(4-cyanophenyl)thiazol-2-yl)-5-nitrothiophene-2-carboxamide], the “NfsB activity (rate of compound conversion)” value at NfsB (20 μM compound, 40 μM NADH, 70 nM NfsB, slope of initial velocity) is listed as 1.31 µM/min. For the same molecule, the “conversion by NfsB (in words)” value on NfsB (biochemical assay) is given as “not converted”. Further, the MIC was 20 µg/mL (≈ 56.1 µM) with E. coli ∆tolC JW5503-1; over 40 µg/mL in the assay on E. coli ∆nfsA; over 40 µg/mL in the assay on E. coli ∆nfsA + ∆nfsB (Escherichia coli, read-out: MIC ∆nfsA + ∆nfsB); over 40 µg/mL in assay [1] (setting [2]); 20 µg/mL (≈ 56.1 µM) in the assay on E. coli ∆acrB JW0451-2; over 40 µg/mL in the assay on E. coli ∆nfsB. Further, the “fold loss in MIC against ∆tolC” value in the assay on E. coli ∆tolC JW5503-1 (compared to compound 12) is listed as over 100 fold. For the same molecule, in the assay with E. coli ∆nfsA + ∆nfsB (ΔnfsA and ΔnfsB double knockout strain), the “antibacterial activity in double knockout (in words)” value was “inactive”. Further, the “NfsA activity (rate of compound conversion)” value on NfsA (20 μM compound, 40 μM NADPH, 10 nM NfsA, slope of initial velocity) stood at 0.20 µM/min. At NfsA (biochemical assay), the “conversion by NfsA (in words)” value was “not converted”. The “MIC WT” value in assay [1] is over 40 µg/mL.

Take `O=C(Nc1nc(-c2ccc(OC(F)(F)F)cc2)cs1)c1ccc([N+](=O)[O-])s1` [compound 16, 5-Nitro-N-(4-(4-(trifluoromethoxy)phenyl)thiazol-2-yl)thiophene-2-carboxamide]: the MIC was 0.3 µg/mL (≈ 0.722 µM) with E. coli ∆tolC JW5503-1, 5 µg/mL (≈ 12 µM) in assay [1] (setting [2]) and 1.25 µg/mL (≈ 3.01 µM) in the assay on E. coli ∆acrB JW0451-2.

For `Cc1cc(F)ccc1-c1csc(NC(=O)c2ccc([N+](=O)[O-])s2)n1` [compound 18, N-(4-(4-fluoro-2-methylphenyl)thiazol-2-yl)-5-nitrothiophene-2-carboxamide], the MIC is 0.3 µg/mL (≈ 0.826 µM) with E. coli ∆tolC JW5503-1, 2.5 µg/mL (≈ 6.88 µM) in assay [1] (setting [2]) and 0.6 µg/mL (≈ 1.65 µM) in the assay on E. coli ∆acrB JW0451-2.

As to `COc1cc(-c2csc(NC(=O)c3ccc([N+](=O)[O-])s3)n2)ccc1F` [compound 19, N-(4-(4-fluoro-3-methoxyphenyl)thiazol-2-yl)-5-nitrothiophene-2-carboxamide], the results for the MIC (in the assay with E. coli ∆tolC JW5503-1; in assay [1] (setting [2]); in the assay on E. coli ∆acrB JW0451-2) were 0.6 µg/mL (≈ 1.58 µM), 1.25 µg/mL (≈ 3.29 µM) and 0.3 µg/mL (≈ 0.791 µM), respectively.

Turning to `O=C(Nc1nc(-c2ccc(Cl)c(F)c2)cs1)c1ccc([N+](=O)[O-])s1` [compound 21, N-(4-(4-Chloro-3-fluorophenyl)thiazol-2-yl)-5-nitrothiophene-2-carboxamide], the MIC in the assay with E. coli ∆tolC JW5503-1 is 2.5 µg/mL (≈ 6.51 µM); in assay [1] (BW25113, read-out: MIC WT), 1.25 µg/mL (≈ 3.26 µM); in the assay with E. coli ∆acrB JW0451-2, 1.25 µg/mL (≈ 3.26 µM).

In the case of `CCOc1cc(-c2csc(NC(=O)c3ccc([N+](=O)[O-])s3)n2)ccc1Cl` [compound 22, N-(4-(4-chloro-3-ethoxyphenyl)thiazol-2-yl)-5-nitrothiophene-2-carboxamide], the MIC with E. coli ∆tolC JW5503-1 is 0.6 µg/mL (≈ 1.46 µM); in assay [1] (BW25113, read-out: MIC WT), 1.25 µg/mL (≈ 3.05 µM); in the assay on E. coli ∆acrB JW0451-2, 1.25 µg/mL (≈ 3.05 µM).

Turning to `COc1cc(-c2csc(NC(=O)c3ccc([N+](=O)[O-])s3)n2)ccc1C(F)(F)F` [compound 23, N-(4-(3-methoxy-4-(trifluoromethyl)phenyl)thiazol-2-yl)-5-nitrothiophene-2-carboxamide], the MIC is 1.25 µg/mL (≈ 2.91 µM) with E. coli ∆tolC JW5503-1, 2.5 µg/mL (≈ 5.82 µM) in assay [1] (setting [2]) and 2.5 µg/mL (≈ 5.82 µM) with E. coli ∆acrB JW0451-2.

With `O=C(Nc1nc(-c2cc(F)cc(F)c2)cs1)c1ccc([N+](=O)[O-])s1` [compound 24, N-(4-(3,5-difluorophenyl)thiazol-2-yl)-5-nitrothiophene-2-carboxamide], the MIC in the assay with E. coli ∆tolC JW5503-1 was 0.3 µg/mL (≈ 0.817 µM); in assay [1] (setting [2]) it was over 20 µg/mL; in the assay with E. coli ∆acrB JW0451-2, 0.3 µg/mL (≈ 0.817 µM).

On to “N-(4-(3-Fluoro-4-methylphenyl)thiazol-2-yl)-5-nitrothiophene-2-carboxamide [compound 13]”, for which, in the assay on E. coli ∆tolC JW5503-1, the “MIC tolC” value was determined as 0.3 µg/mL. Also, in assay [1], the “MIC WT” value came out at 1.25 µg/mL. Moreover, in the assay with E. coli ∆acrB JW0451-2, the “MIC acrB” value is 0.3 µg/mL.
